Measurements: the NIST ThermoML archive (doi:10.1016/j.fluid.2012.02.007)

Conditions: Liquid, Vibrating tube method

CCCCCCO [hexan-1-ol]
Conditions	mass density [kg/m3]
293.15 K, 100 kPa	818.6
293.15 K, 10000 kPa	824.8
293.15 K, 20000 kPa	830.9
293.15 K, 30000 kPa	836.4
293.15 K, 40000 kPa	841.6
293.15 K, 50000 kPa	846.5
293.15 K, 60000 kPa	851.1
293.15 K, 70000 kPa	855.5
293.15 K, 80000 kPa	859.8
293.15 K, 90000 kPa	863.7
293.15 K, 100000 kPa	867.9
293.15 K, 110000 kPa	871.5
293.15 K, 120000 kPa	875.2
293.15 K, 130000 kPa	878.7
293.15 K, 140000 kPa	882.2
303.15 K, 100 kPa	811.5
303.15 K, 10000 kPa	818.2
303.15 K, 20000 kPa	824.1
303.15 K, 30000 kPa	830
303.15 K, 40000 kPa	835.1
303.15 K, 50000 kPa	840.5
303.15 K, 60000 kPa	845.3
303.15 K, 70000 kPa	849.8
303.15 K, 80000 kPa	854.2
303.15 K, 90000 kPa	858.4
303.15 K, 100000 kPa	862.4
303.15 K, 110000 kPa	866.3
303.15 K, 120000 kPa	870
303.15 K, 130000 kPa	873.6
303.15 K, 140000 kPa	877.1
313.15 K, 100 kPa	804.2
313.15 K, 10000 kPa	811.1
313.15 K, 20000 kPa	817.4
313.15 K, 30000 kPa	823.5
313.15 K, 40000 kPa	829
313.15 K, 50000 kPa	834.4
313.15 K, 60000 kPa	839.4
313.15 K, 70000 kPa	844.3
313.15 K, 80000 kPa	848.7
313.15 K, 90000 kPa	853.1
313.15 K, 100000 kPa	857.1
313.15 K, 110000 kPa	861.2
313.15 K, 120000 kPa	865.1
313.15 K, 130000 kPa	868.7
313.15 K, 140000 kPa	872.5
323.15 K, 100 kPa	797.3
323.15 K, 10000 kPa	804.5
323.15 K, 20000 kPa	811.2
323.15 K, 30000 kPa	817.4
323.15 K, 40000 kPa	823.3
323.15 K, 50000 kPa	828.7
323.15 K, 60000 kPa	833.8
323.15 K, 70000 kPa	838.5
323.15 K, 80000 kPa	843.1
323.15 K, 90000 kPa	847.6
323.15 K, 100000 kPa	851.8
323.15 K, 110000 kPa	856
323.15 K, 120000 kPa	860
323.15 K, 130000 kPa	863.7
323.15 K, 140000 kPa	867.3
333.15 K, 100 kPa	789.7
333.15 K, 10000 kPa	797.2
333.15 K, 20000 kPa	804.3
333.15 K, 30000 kPa	810.8
333.15 K, 40000 kPa	817
333.15 K, 50000 kPa	822.7
333.15 K, 60000 kPa	828
333.15 K, 70000 kPa	832.8
333.15 K, 80000 kPa	837.6
333.15 K, 90000 kPa	842.5
333.15 K, 100000 kPa	846.8
333.15 K, 110000 kPa	850.8
333.15 K, 120000 kPa	854.4
333.15 K, 130000 kPa	858.5
333.15 K, 140000 kPa	862.2
343.15 K, 100 kPa	781.9
343.15 K, 10000 kPa	790.2
343.15 K, 20000 kPa	797.6
343.15 K, 30000 kPa	804.4
343.15 K, 40000 kPa	810.6
343.15 K, 50000 kPa	816.4
343.15 K, 60000 kPa	822.1
343.15 K, 70000 kPa	827.3
343.15 K, 80000 kPa	832.1
343.15 K, 90000 kPa	836.9
343.15 K, 100000 kPa	841.4
343.15 K, 110000 kPa	845.7
343.15 K, 120000 kPa	849.7
343.15 K, 130000 kPa	853.6
343.15 K, 140000 kPa	857.5
353.15 K, 100 kPa	773.8
353.15 K, 10000 kPa	782.3
353.15 K, 20000 kPa	790.1
353.15 K, 30000 kPa	797.3
353.15 K, 40000 kPa	803.8
353.15 K, 50000 kPa	810
353.15 K, 60000 kPa	815.6
353.15 K, 70000 kPa	821
353.15 K, 80000 kPa	826.2
353.15 K, 90000 kPa	831.1
353.15 K, 100000 kPa	835.6
353.15 K, 110000 kPa	840
353.15 K, 120000 kPa	844.3
353.15 K, 130000 kPa	848.4
353.15 K, 140000 kPa	852.3
363.15 K, 100 kPa	765.5
363.15 K, 10000 kPa	774.9
363.15 K, 20000 kPa	783.1
363.15 K, 30000 kPa	790.6
363.15 K, 40000 kPa	797.5
363.15 K, 50000 kPa	803.8
363.15 K, 60000 kPa	809.7
363.15 K, 70000 kPa	815.4
363.15 K, 80000 kPa	820.6
363.15 K, 90000 kPa	825.6
363.15 K, 100000 kPa	830.3
363.15 K, 110000 kPa	834.8
363.15 K, 120000 kPa	839.2
363.15 K, 130000 kPa	843.3
363.15 K, 140000 kPa	847.2
373.15 K, 100 kPa	756.9
373.15 K, 10000 kPa	766.6
373.15 K, 20000 kPa	775.4
373.15 K, 30000 kPa	783.4
373.15 K, 40000 kPa	790.4
373.15 K, 50000 kPa	796.9
373.15 K, 60000 kPa	803.1
373.15 K, 70000 kPa	808.9
373.15 K, 80000 kPa	814.2
373.15 K, 90000 kPa	819.5
373.15 K, 100000 kPa	824.4
373.15 K, 110000 kPa	829.2
373.15 K, 120000 kPa	833.3
373.15 K, 130000 kPa	837.7
373.15 K, 140000 kPa	841.7
383.15 K, 100 kPa	748.2
383.15 K, 10000 kPa	759.1
383.15 K, 20000 kPa	767.8
383.15 K, 30000 kPa	776.5
383.15 K, 40000 kPa	783.5
383.15 K, 50000 kPa	790.4
383.15 K, 60000 kPa	796.8
383.15 K, 70000 kPa	802.6
383.15 K, 80000 kPa	808.3
383.15 K, 90000 kPa	813.7
383.15 K, 100000 kPa	818.7
383.15 K, 110000 kPa	823.4
383.15 K, 120000 kPa	828
383.15 K, 130000 kPa	832.3
383.15 K, 140000 kPa	836.5
393.15 K, 100 kPa	739.4
393.15 K, 10000 kPa	750.8
393.15 K, 20000 kPa	760.5
393.15 K, 30000 kPa	768.8
393.15 K, 40000 kPa	777
393.15 K, 50000 kPa	783.7
393.15 K, 60000 kPa	790.3
393.15 K, 70000 kPa	796.5
393.15 K, 80000 kPa	802.5
393.15 K, 90000 kPa	807.8
393.15 K, 100000 kPa	813
393.15 K, 110000 kPa	818.1
393.15 K, 120000 kPa	822.6
393.15 K, 130000 kPa	827.2
393.15 K, 140000 kPa	831.5
403.15 K, 100 kPa	730.2
403.15 K, 10000 kPa	741.8
403.15 K, 20000 kPa	751.9
403.15 K, 30000 kPa	761.1
403.15 K, 40000 kPa	769.3
403.15 K, 50000 kPa	776.9
403.15 K, 60000 kPa	783.7
403.15 K, 70000 kPa	790.1
403.15 K, 80000 kPa	796.2
403.15 K, 90000 kPa	801.8
403.15 K, 100000 kPa	807.2
403.15 K, 110000 kPa	812.3
403.15 K, 120000 kPa	817.1
403.15 K, 130000 kPa	821.8
403.15 K, 140000 kPa	826.5
